Measured values taken from ChEMBL document CHEMBL4130375, “Design, synthesis and biological evaluation of 4-amidobenzimidazole acridine derivatives as dual PARP and Topo inhibitors for cancer therapy” (Eur J Med Chem, 2017).
Calls of active or inactive are those of the source. No cut-off for these calls is given here.

How the values were obtained:
MCF7 [1] = test: Upregulation of cleaved caspase-9 protein expression in human MCF7 cells after 24 hrs by Western blot method; format: functional, cell-based
[2] = Intrinsic clearance in human liver microsomes at 1.11 uM preincubated for 5 mins followed by NADPH addition by LC-MS/MS analysis; format: ADME, microsome; conditions: read-out: CLH
MCF7 [3] = test: Cell cycle arrest in human MCF7 cells assessed as accumulation at S phase at 5 uM after 24 hrs by propidium iodide staining based flow cytometry (reference value: 59.72 +/- 2.98%); format: functional
MCF7 [4] = test: Induction of apoptosis in human MCF7 cells assessed as live cells at 1 uM after 48 hrs by Annexin V-FITC/propidium iodide staining based flow cytometry (reference value: 99.9%); format: functional
[5] = target: Poly [ADP-ribose] polymerase 1 (Homo sapiens, UniProt P09874); test: Inhibition of PARP1 (unknown origin) assessed as reduction in biotinylated poly(ADP-ribose) incorporation on to histone protein by ELISA based colorimetric assay
Poly [ADP-ribose] polymerase 1, sequence (P09874 whole entry): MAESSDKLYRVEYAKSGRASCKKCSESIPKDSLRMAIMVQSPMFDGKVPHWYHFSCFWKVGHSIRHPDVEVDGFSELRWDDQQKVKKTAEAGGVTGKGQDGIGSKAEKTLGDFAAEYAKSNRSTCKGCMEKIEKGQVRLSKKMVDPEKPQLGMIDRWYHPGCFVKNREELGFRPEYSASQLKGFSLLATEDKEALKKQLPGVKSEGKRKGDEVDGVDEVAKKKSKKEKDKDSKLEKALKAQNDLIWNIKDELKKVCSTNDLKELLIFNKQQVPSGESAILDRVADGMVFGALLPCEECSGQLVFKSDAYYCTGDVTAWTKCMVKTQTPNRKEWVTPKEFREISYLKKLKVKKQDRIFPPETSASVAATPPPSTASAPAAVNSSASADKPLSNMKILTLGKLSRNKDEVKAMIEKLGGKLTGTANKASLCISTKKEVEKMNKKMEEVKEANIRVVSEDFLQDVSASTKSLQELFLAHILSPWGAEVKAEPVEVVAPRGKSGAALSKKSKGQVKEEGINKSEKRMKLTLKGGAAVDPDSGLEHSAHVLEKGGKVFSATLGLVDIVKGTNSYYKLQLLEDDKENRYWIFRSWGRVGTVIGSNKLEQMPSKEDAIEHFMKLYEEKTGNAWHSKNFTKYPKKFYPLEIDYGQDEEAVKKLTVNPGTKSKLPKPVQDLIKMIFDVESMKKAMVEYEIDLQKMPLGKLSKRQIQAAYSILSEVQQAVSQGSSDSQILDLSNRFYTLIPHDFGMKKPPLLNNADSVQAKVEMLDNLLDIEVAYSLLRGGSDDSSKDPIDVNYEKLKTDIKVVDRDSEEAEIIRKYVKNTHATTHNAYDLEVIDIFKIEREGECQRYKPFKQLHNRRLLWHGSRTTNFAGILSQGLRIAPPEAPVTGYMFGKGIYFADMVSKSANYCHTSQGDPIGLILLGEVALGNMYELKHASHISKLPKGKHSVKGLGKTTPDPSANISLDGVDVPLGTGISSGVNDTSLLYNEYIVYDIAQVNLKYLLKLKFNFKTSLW

MCF7 [6] = test: Cell cycle arrest in human MCF7 cells assessed as accumulation at G0/G1 phase at 5 uM after 24 hrs by propidium iodide staining based flow cytometry (reference value: 17.67 +/- 1.25%); format: functional
HCC1937 = test: Potency index, ratio of olaparib IC50 to compound IC50 for human HCC1937 cells harboring BRCA1 mutant; format: functional
MCF7 [7] = test: Upregulation of p27 protein expression in human MCF7 cells after 24 hrs by Western blot method; format: functional, cell-based
MCF7 [8] = test: Cell cycle arrest in human MCF7 cells assessed as accumulation at G2/M phase at 1 uM after 24 hrs by propidium iodide staining based flow cytometry (reference value: 22.61 +/- 1.55%); format: functional
MCF7 [9] = test: Cell cycle arrest in human MCF7 cells assessed as accumulation at S phase at 10 uM after 24 hrs by propidium iodide staining based flow cytometry (reference value: 59.72 +/- 2.98%); format: functional
Cytochrome P450 3A4 = Cytochrome P450 3A4 (Homo sapiens, UniProt P08684); test: Inhibition of CYP3A4 in human liver microsomes preincubated for 10 mins followed by NADPH/substrate addition measured after 20 mins by LC-MS/MS analysis
Cytochrome P450 3A4, sequence (P08684 whole entry): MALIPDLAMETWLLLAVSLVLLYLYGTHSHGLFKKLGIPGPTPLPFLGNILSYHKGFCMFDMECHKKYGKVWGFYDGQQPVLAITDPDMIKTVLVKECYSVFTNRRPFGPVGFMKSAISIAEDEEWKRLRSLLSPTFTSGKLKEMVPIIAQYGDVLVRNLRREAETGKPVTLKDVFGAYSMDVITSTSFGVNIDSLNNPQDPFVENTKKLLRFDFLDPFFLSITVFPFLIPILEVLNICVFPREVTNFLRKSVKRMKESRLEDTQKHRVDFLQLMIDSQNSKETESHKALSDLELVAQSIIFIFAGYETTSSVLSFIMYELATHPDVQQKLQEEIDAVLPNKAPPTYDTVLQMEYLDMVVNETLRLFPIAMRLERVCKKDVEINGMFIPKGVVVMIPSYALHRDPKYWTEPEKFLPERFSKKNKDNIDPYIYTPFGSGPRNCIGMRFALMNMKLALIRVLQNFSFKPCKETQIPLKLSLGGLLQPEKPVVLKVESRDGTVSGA

[10] = target: DNA topoisomerase 2-alpha (Homo sapiens) (UniProt P11388); test: Inhibition of human topoisomerase-2 at 100 uM using supercoiled pBR322 DNA as substrate after 10 to 15 mins by ethidium bromide staining based electrophoresis method
DNA topoisomerase 2-alpha (Homo sapiens), sequence (P11388 whole entry): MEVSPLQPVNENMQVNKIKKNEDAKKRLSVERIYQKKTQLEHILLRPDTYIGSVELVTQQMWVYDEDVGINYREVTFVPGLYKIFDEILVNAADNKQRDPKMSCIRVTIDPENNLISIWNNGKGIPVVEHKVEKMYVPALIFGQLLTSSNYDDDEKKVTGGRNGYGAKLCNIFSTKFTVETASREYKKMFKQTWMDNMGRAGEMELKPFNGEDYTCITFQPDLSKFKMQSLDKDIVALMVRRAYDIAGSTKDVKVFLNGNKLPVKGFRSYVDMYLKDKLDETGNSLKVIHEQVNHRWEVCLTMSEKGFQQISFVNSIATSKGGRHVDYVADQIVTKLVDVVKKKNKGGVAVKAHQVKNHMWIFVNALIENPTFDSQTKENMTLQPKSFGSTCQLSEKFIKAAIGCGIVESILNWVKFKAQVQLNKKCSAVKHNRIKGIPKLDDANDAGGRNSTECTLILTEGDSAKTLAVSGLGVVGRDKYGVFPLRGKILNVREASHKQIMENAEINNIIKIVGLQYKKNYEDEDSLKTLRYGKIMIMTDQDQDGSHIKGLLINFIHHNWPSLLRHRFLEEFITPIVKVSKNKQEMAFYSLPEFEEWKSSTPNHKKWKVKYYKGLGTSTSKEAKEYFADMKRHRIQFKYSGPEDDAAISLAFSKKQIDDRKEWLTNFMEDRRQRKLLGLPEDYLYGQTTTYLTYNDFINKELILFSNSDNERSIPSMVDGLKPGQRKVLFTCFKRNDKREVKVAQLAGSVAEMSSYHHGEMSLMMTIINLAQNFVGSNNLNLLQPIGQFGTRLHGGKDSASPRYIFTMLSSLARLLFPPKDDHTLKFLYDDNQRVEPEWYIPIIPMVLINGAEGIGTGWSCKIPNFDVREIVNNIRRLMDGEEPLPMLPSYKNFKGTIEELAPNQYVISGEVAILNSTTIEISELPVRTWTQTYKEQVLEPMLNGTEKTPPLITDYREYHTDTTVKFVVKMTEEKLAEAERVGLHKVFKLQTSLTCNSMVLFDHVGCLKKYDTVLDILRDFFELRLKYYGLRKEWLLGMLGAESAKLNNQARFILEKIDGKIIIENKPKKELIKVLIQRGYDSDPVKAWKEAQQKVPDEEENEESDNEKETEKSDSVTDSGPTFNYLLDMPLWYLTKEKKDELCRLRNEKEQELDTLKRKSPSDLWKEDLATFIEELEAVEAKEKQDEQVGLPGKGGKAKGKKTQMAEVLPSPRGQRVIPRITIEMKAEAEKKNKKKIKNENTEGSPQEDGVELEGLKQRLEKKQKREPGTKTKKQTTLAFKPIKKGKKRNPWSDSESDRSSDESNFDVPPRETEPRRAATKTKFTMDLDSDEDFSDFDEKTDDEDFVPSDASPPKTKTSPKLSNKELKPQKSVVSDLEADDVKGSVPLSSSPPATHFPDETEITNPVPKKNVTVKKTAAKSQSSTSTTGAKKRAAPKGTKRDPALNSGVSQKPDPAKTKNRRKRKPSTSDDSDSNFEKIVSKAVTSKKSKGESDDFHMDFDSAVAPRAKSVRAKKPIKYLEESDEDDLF

[11] = target: T1, DNA topoisomerase 1 (Homo sapiens) (UniProt P11387); test: Inhibition of human topoisomerase-1 at 2 to 100 uM using supercoiled pBR322 DNA as substrate after 10 to 15 mins by ethidium bromide staining based electrophoresis method
T1 sequence (whole entry): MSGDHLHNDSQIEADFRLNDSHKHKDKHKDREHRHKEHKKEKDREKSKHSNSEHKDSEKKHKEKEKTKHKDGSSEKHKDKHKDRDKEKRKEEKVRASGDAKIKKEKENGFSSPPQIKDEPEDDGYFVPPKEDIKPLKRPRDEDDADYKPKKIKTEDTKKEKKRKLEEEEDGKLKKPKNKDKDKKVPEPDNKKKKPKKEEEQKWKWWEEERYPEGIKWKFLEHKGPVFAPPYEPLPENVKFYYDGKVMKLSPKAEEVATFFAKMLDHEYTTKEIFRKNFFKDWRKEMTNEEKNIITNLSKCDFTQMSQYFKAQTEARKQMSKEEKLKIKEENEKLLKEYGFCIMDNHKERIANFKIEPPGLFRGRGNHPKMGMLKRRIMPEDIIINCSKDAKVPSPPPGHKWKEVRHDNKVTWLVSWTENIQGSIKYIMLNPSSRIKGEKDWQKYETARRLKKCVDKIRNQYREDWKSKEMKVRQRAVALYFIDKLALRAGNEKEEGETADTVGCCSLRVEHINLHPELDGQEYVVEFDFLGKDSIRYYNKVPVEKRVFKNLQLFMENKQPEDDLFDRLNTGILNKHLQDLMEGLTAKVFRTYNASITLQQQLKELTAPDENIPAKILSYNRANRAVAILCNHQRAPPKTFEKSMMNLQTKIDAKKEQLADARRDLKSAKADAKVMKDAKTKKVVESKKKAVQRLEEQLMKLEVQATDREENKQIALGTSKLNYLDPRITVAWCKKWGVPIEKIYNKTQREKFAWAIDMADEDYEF

MCF7 [12] = test: Induction of apoptosis in human MCF7 cells assessed as necrotic cells at 1 uM after 48 hrs by Annexin V-FITC/propidium iodide staining based flow cytometry (reference value: 0%); format: functional
MCF7 [13] = test: Induction of apoptosis in human MCF7 cells assessed as early apoptotic cells at 5 uM after 48 hrs by Annexin V-FITC/propidium iodide staining based flow cytometry (reference value: 0.108%); format: functional
HCT-116 = test: Antiproliferative activity against human HCT116 cells expressing topoisomerase-1 after 72 hrs by MTT assay; format: functional, cell-based; conditions: HCT-116, 72 h
MCF7 [14] = test: Antitumor activity against human MCF7 cells xenografted in mouse assessed as tumor growth inhibition at 20 to 40 mg/kg/day, ip measured on day 30 post initial treatment; format: functional, organism-based
MCF7 [15] = test: Downregulation of full length PARP protein expression in human MCF7 cells up to 10 uM after 24 hrs by Western blot method; format: functional, cell-based
MCF7 [16] = test: Downregulation of CyclinE protein expression in human MCF7 cells up to 10 uM after 24 hrs by Western blot method; format: functional, cell-based
MCF7 [17] = test: Downregulation of CyclinD protein expression in human MCF7 cells up to 10 uM after 24 hrs by Western blot method; format: functional, cell-based
MCF7 [18] = test: Induction of apoptosis in human MCF7 cells assessed as necrotic cells at 5 uM after 48 hrs by Annexin V-FITC/propidium iodide staining based flow cytometry (reference value: 0%); format: functional
MCF7 [19] = test: Induction of apoptosis in human MCF7 cells assessed as necrotic cells at 10 uM after 48 hrs by Annexin V-FITC/propidium iodide staining based flow cytometry (reference value: 0%); format: functional
MCF7 [20] = test: Downregulation of CDK6 protein expression in human MCF7 cells up to 10 uM after 24 hrs by Western blot method; format: functional, cell-based
Cytochrome P450 2C19 = Cytochrome P450 2C19 (Homo sapiens, UniProt P33261); test: Inhibition of CYP2C19 in human liver microsomes preincubated for 10 mins followed by NADPH/substrate addition measured after 20 mins by LC-MS/MS analysis
Cytochrome P450 2C19, sequence (P33261 whole entry): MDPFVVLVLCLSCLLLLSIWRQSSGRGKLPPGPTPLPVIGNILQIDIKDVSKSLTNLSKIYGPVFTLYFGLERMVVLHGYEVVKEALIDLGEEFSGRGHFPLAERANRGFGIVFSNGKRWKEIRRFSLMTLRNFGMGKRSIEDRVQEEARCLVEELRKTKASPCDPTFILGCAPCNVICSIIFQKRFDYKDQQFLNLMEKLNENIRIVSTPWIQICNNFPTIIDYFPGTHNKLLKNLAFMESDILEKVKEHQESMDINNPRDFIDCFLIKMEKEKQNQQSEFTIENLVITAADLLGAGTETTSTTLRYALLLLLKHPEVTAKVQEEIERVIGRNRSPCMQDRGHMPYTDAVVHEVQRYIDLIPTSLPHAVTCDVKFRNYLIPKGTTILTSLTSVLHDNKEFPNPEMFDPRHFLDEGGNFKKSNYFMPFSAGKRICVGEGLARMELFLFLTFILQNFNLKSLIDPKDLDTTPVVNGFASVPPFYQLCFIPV

MCF7 [21] = test: Cell cycle arrest in human MCF7 cells assessed as accumulation at G2/M phase at 5 uM after 24 hrs by propidium iodide staining based flow cytometry (reference value: 22.61 +/- 1.55%); format: functional
MCF7 [22] = test: Induction of DNA double strand breaks in human MCF7 cells assessed as increase in gammaH2AX level after 24 hrs by Western blot analysis; format: functional, cell-based
Cytochrome P450 2C9 = Cytochrome P450 2C9 (Homo sapiens, UniProt P11712); test: Inhibition of CYP2C9 in human liver microsomes preincubated for 10 mins followed by NADPH/substrate addition measured after 20 mins by LC-MS/MS analysis
Cytochrome P450 2C9, sequence (P11712 whole entry): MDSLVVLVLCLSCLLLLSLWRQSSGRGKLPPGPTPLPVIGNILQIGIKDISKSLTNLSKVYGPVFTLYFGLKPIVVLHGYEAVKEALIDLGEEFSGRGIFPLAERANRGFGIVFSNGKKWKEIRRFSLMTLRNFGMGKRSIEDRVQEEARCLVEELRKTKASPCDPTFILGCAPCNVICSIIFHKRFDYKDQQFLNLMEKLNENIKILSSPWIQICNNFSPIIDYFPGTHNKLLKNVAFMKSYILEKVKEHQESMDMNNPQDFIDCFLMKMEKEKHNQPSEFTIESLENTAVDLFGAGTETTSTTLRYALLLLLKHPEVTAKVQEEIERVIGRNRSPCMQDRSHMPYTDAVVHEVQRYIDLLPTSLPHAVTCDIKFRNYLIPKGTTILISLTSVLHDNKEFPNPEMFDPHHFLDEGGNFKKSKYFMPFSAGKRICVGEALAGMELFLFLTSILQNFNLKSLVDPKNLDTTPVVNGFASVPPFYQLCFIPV

microsomal CLint at 1.11 µM [2]: 35.6 µL/min/mg
IC50 [5]: 450 nM
IC50 (Cytochrome P450 3A4): 6800 nM
inhibition [10]: Active
inhibition [11]: Active
IC50 (HCT-116): 1430 nM
IC50 (Cytochrome P450 2C19): > 10000 nM
IC50 (Cytochrome P450 2C9): 2200 nM
Compound: Cc1cccc2c(Nc3cccc(-c4nc5c(C(N)=O)cccc5[nH]4)c3)c3ccccc3nc12
Activity (MCF7 [1]): Dose-dependent effect
Activity (MCF7 [3]): 42.32%
Activity (MCF7 [4]): 42.9%
Activity (MCF7 [6]): 43.62%
Ratio IC50 (HCC1937): 6
Activity (MCF7 [7]): Dose-dependent effect
Activity (MCF7 [8]): 21.76%
Activity (MCF7 [9]): 30.87%
Activity (MCF7 [12]): 0.531%
Activity (MCF7 [13]): 23.9%
TGI (MCF7 [14]): Active
Activity (MCF7 [15]): Active
Activity (MCF7 [16]): Active
Activity (MCF7 [17]): Active
Activity (MCF7 [18]): 0.641%
Activity (MCF7 [19]): 0.327%
Activity (MCF7 [20]): Active
Activity (MCF7 [21]): 14.08%
Activity (MCF7 [22]): Dose-dependent effect
